Measured values as given in patent US9890185B2, “Urea derivatives useful as kinase inhibitors” (Respivert Limited, priority 2013, dated 2018).

Key:
PBMCs [1] = test: IL-2 release in CD3/CD28 stimulated PBMC cells (assay c); format: cell-based; conditions: Homo sapiens, read-out: IC50 Values for Inhibition of Cytokine Release, PBMCs IL-2
Method in brief: (§1)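 Compound added to human PBMCs on anti-CD3/anti-CD28-coated wells (0.3 and 3 μg/mL respectively); 3-day culture. Sandwich ELISA of supernatant IL-2 or IFN gamma gives the read-out, with IC50 derived from the dose-response curve.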

Syk [2] = target: T1, Syk (Homo sapiens (Human), UniProt P43405); test: KINOMEscan enzyme binding assay (Syk); conditions: KINOMEscan technology; read-out: Dissociation Constant, Syk
Protocol: (§2) Kinase enzyme binding activities of compounds disclosed herein may be determined using a proprietary assay which measures active site-directed competition binding to an immobilized ligand (Fabian, M. A. et al., Nature Biotechnol., 2005, 23:329-336). These assays may be conducted by DiscoverX (formerly Ambit; San Diego, Calif.). The percentage inhibition produced by incubation with a test compound may be calculated relative to the non-inhibited control.

PBMCs [3] = test: IFN gamma release in CD3/CD28 stimulated PBMC cells (assay c); format: cell-based; conditions: Homo sapiens, read-out: IC50 Values for Inhibition of Cytokine Release, PBMCs IFNγ
Method in brief: as §1

Syk [4] = target: T1, Syk; test: Syk enzyme inhibition (FRET, Z-LYTE); format: biochemical
Method in brief: (§3)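 Z-LYTE FRET; enzyme + cpd 2 hr RT, then peptide + ATP 1 hr (ATP added soln: c-Src 800 μM, Syk 60 μM); protease 1 hr. Donor/acceptor emission ratio, % inhib vs uninhibited control, IC50 from curve.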

c-Src = c-Src (Homo sapiens (Human), UniProt P12931); test: c-Src enzyme inhibition (FRET, Z-LYTE); format: biochemical
Method in brief: as §3

HT29 cells = test: IL-1β-induced IL-8 release in HT29 cells (assay d); format: cell-based; conditions: Homo sapiens, HT-29; IL-1β-stimulated HT29 cells; read-out: IC50 Values for Inhibition of Cytokine Release, HT29 cells IL-8
Protocol: HT29 cells, a human colon adenocarcinoma cell line, are plated in a 96 well plate (24 hrs) and pre-treated with compounds at the desired concentration for 2 hours before addition of 5 ng/mL of IL-1β (Abcam) for 24 hours. Supernatants are harvested for IL-8 quantification by Sandwich ELISA (Duo-set, R&D System). The IC50 is determined from the dose response curve.

p38 MAPK α = p38 MAPK α (Homo sapiens (Human), UniProt Q16539); test: KINOMEscan enzyme binding assay (p38 MAPKα); conditions: KINOMEscan technology; read-out: Dissociation Constant, p38 MAPK α
Protocol: as §2

TNBS-induced colitis = TNBS-induced colitis in mice (in vivo assay iv); set-up: species or system BDF1 mice; TNBS Ulcer grade / TNBS LP inflammation: scale not given here; conditions: SMEDDS vehicle; for Activity in in vivo model of colonic inflammation (histopathology analysis) / Inflammatory cell infiltrate in the reticular and laminar propria zone: TNBS colitis over 2 days; for Ulcer grade and epithelial repair compared to the vehicle control: dosed orally at 5 mg/kg, 2 days; for TNBS LP inflammation / TNBS Ulcer grade: mice, 5 mg/kg orally, conducted over 2 days, histopathology
Protocol: Non-fasted, 10-12 week old, male BDF1 mice are dosed by oral gavage twice daily with either vehicle (5 mL/kg), reference item (Budesonide 2.5 mg/kg) or test compound (1 or 5 mg/kg) one day before (Day −1) stimulation of the inflammatory response by treatment with 2,4,6-trinitrobenzenesulphonic acid (TNBS) (15 mg/mL in 50% ethanol/50% saline). On Day 0 of the study TNBS (200 μL) is administered intra-colonically via a plastic catheter with BID dosing of the vehicle, reference or test compound continuing for 2 or 4 days. During the study animals are weighed every day and stool observations are made and recorded as a score, based on stool consistency. At the time of sacrifice on Day 2 (or Day 4) the large intestine is removed and the length and weight recorded. Sections of the colon are taken for histopathology scoring to determine disease severity.

Sequence of c-Src (P12931 whole entry, looked up): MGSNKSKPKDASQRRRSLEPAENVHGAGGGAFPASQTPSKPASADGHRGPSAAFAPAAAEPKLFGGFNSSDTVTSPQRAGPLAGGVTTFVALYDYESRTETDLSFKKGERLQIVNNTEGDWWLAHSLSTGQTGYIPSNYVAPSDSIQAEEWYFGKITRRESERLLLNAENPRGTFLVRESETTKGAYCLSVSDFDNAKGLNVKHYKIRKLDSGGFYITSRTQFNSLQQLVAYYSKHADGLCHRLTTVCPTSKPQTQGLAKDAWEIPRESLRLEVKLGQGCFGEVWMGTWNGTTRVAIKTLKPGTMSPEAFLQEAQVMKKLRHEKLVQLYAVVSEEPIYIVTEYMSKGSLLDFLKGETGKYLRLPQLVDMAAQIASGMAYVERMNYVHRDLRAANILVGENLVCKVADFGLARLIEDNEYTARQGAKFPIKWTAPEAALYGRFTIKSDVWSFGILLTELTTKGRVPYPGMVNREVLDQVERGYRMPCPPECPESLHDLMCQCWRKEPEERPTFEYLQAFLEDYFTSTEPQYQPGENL
Sequence of p38 MAPK α (Q16539 whole entry): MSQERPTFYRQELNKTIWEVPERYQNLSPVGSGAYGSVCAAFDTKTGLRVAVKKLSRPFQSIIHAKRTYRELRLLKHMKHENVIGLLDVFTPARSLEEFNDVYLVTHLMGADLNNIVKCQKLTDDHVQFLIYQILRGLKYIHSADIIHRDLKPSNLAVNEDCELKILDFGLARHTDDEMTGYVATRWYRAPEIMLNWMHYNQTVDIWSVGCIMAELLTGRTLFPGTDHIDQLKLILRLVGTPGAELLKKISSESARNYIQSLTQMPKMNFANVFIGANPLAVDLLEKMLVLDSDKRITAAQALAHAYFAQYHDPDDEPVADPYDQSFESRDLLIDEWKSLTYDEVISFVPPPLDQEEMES

Row | SMILES | IC50 (PBMCs [1]) | Kd (Syk [2]) | IC50 (PBMCs [3]) | IC50 (Syk [4]) | IC50 (c-Src) | IC50 (HT29 cells) | Kd (p38 MAPK α) | Activity in in vivo model of colonic inflammation (histopathology analysis) (TNBS-induced colitis) | Inflammatory cell infiltrate in the reticular and laminar propria zone (TNBS-induced colitis) | Ulcer grade and epithelial repair compared to the vehicle control (TNBS-induced colitis) | TNBS LP inflammation (TNBS-induced colitis) | TNBS Ulcer grade (TNBS-induced colitis)
1 | COc1c(NC(=O)Nc2ccc(Oc3ccnc(Nc4ccccc4)c3)c3ccccc23)cc(C(C)(C)C)cc1[S+](C)[O-] (racemic) [Example 12, 1-(5-(tert-Butyl)-2-methoxy-3-(methylsulfinyl)phenyl)-3-(4-((2-(phenylamino)pyridin-4-yl)oxy)naphthalen-1-yl)urea] | 67 nM | 18 nM | 8.6 nM | 656 nM | 201 nM | 8.6 nM | 11 nM | – | – | – | – | –
2 | COCCOCCOCCOc1cc(Nc2cc(Oc3ccc(NC(=O)Nc4cc(C(C)(C)C)cc(S(C)(=O)=O)c4OC)c4ccccc34)ccn2)cc(OC)c1 [Example 9, 1-(5-(tert-Butyl)-2-methoxy-3-(methylsulfonyl)phenyl)-3-(4-((2-((3-methoxy-5-(2-(2-(2-methoxyethoxy)ethoxy)ethoxy)phenyl)amino)pyridin-4-yl)oxy)naphthalen-1-yl)urea] | 42.7 nM | 29 nM | 9.4 nM | 233 nM | 52 nM | 4.3 nM | 26 nM | significant activity | marked reductions | marked improvements | 2.9 ± 0.3 | 3.6 ± 0.3
3 | COc1c(CC(N)=O)cc(C(C)(C)C)cc1NC(=O)Nc1ccc(Oc2ccnc(Nc3ccccc3)c2)c2ccccc12 [Example 13, 2-(5-(tert-Butyl)-2-methoxy-3-(3-(4-((2-(phenylamino)pyridin-4-yl)oxy)naphthalen-1-yl)ureido)phenyl)acetamide] | 204 nM | – | 50.4 nM | 1390 nM | 239 nM | 18.2 nM | – | significant activity | marked reductions | marked improvements | 2.8 ± 0.5 | 2.6 ± 0.7
4 | COc1c(NC(=O)Nc2ccc(Oc3ccnc(Nc4ccccc4)c3)c3ccccc23)cc(C(C)(C)C)cc1C(=O)NCCN1CCOCC1 [Example 14, 5-(tert-Butyl)-2-methoxy-N-(2-morpholinoethyl)-3-(3-(4-((2-(phenylamino)pyridin-4-yl)oxy)naphthalen-1-yl)ureido)benzamide] | 39.2 nM | – | 16.3 nM | 364 nM | 135 nM | – | – | significant activity | marked reductions | – | 3.6 ± 0.2 | 3.5 ± 0.5
5 | COc1cc(Nc2cc(Oc3ccc(NC(=O)Nc4cc(C(C)(C)C)cc(CC(N)=O)c4OC)c4ccccc34)ccn2)cc(OC)c1 [Example 30, 2-(5-(tert-Butyl)-3-(3-(4-((2-((3,5-dimethoxyphenyl)amino)pyridin-4-yl)oxy)naphthalen-1-yl)ureido)-2-methoxyphenyl)acetamide] | 94.5 nM | – | 6.4 nM | 708 nM | 60 nM | – | – | significant activity | marked reductions | marked improvements | 2.5 ± 0.4 | 3.1 ± 0.4
6 | COc1cc(Nc2cc(Oc3ccc(NC(=O)Nc4cc(C(C)(C)C)cc(P(C)(C)=O)c4OC)c4ccccc34)ccn2)cc(C(N)=O)c1 [Example 37, 3-((4-((4-(3-(5-(tert-butyl)-3-(dimethylphosphoryl)-2-methoxyphenyl)ureido)-naphthalen-1-yl)oxy)pyridin-2-yl)amino)-5-methoxybenzamide] | 48 nM | 5.1 nM | 0.7 nM | 347 nM | 32 nM | – | 4.5 nM | – | – | – | – | –
